Measured values as given in patent US10590145B2, “Tetrahydrothiopyranopyrimidine derivatives as anti-HIV agent” (SHANDONG UNIVERSITY, priority 2016, dated 2020).
Read-outs that look alike come from different tables or passages of the source.

Legend:
[1] = tested on: wide-type HIV-1 (strain IIIB); test: Anti-HIV-1 activity in MT-4 cells (MTT method), wild-type; format: cell-based
Protocol: (§1) Selected compounds were screened for inhibitory activity against HIV-1 using MTT method as describe previously by Christophe. Pannecouque et al. Nat. Protoc. 3 (2008) 427-434, and Rudi Pauwels et al. J. Virol. Methods 20 (1988) 309-321. Briefly, MT-4 cells infected with HIV-1 can only survive for 5 to 7 days without any treatment, but when HIV-1 inhibitors were added, they can protect MT-4 cell from cytopathic. Serial solution of compounds was added to MT-4 cells after infected with HIV-1, MTT method was used to detect the survival rate after culture for 5 to 7 days. EC50 value was defined as compound concentration required to achieve 50% protection of MT-4 cells against HIV-1-induced cytopathic effect. In vitro anti-HIV-1 assay was supported by Rega Institute for Medical Research.
(§2) • (1) MT-4 cells infected with HIV-1 viral strains (IIIB, L100I, K103N, Y181C, Y188L, E138K, F227L/V106A, Y181C/K103N) were provided by Rega Institute for Medical Research, Katholieke Universiteit Leuven, Belgium. • (2) MTT and formazan: sigma Chemical Co. • (3) Preparation of compounds: Stock solutions (10×final concentration) of test compounds is diluted with double distilled water for 5 folds and 5 concentrations of one compound are prepared. • (4) Reference drugs: Nevirapine (NVP), Efavirenz (EFV), Etravirine (ETV), Rilpivirine (RPV) and Azidothymidine (AZT). • (5) Method (MTT method): Serial five-fold dilutions of test compounds were added to cultured MT-4 cells infected with HIV-1, after 5 to 7 days, MTT was added and cultured for a few hours. Medium was removed and lysate was added followed by formazan, OD value was determined in 690 nm and 540 nm by microplate reader, and EC50 value was calculated. 2. Method
(§3) The MTT method was described briefly as follows: 96-well plastic microtiter trays were filled with 100 μL of complete medium. Subsequently, serial of tested compounds was added (25 μL) to two series of triplicate wells so as to allow simultaneous evaluation of their effects on HIV- and mock infected cells. 50 μL of 1×10^4 cells/mL MT-4 cells were added. After cultured for 5 days at 37° C. in humidified atmosphere in the presence of 5% CO2, MTT was added and cultured for another 2 h, then medium was removed and 100 μL isopropanol solution was added to lyse the cells. Formazan crystals were added and vibrated platform shaker for 10 min to solubilize the formazan crystals. Absorbances at 690 nm and 540 nm were read by using spectrophotometrically. EC50 was defined as the concentration achieving 50% protection from the cytopathic effect of the virus in infected cells.
(§4) Selected compounds prepared as described above were assayed in MT-4 cells infected with wide-type IIIB, L100I, K103N, Y181C, Y188L, E138K or double mutant RES056 (Y181C/K103N) and F227L/V106A HIV-1 strains. Nevirapine, Efavirenz, Etravirine, Rilpivirine and Azidothymidine were selected as reference drugs. The results were listed below as EC50 value (nM)

[2] = tested on: HIV-1 L100I mutant strain; test: Anti-HIV-1 activity in MT-4 cells (MTT method), L100I; format: cell-based; details: Human immunodeficiency virus 1, MT4, read-out: EC50 (nM) L100I
Protocol: as §1, §2, §3, §4

[3] = tested on: HIV-1 K103N mutant strain; test: Anti-HIV-1 activity in MT-4 cells (MTT method), K103N; format: cell-based; details: Human immunodeficiency virus 1, MT4, read-out: EC50 (nM) K103N
Protocol: as §1, §2, §3, §4

[4] = tested on: HIV-1 Y181C mutant strain; test: Anti-HIV-1 activity in MT-4 cells (MTT method), Y181C; format: cell-based; details: Human immunodeficiency virus 1, MT4, read-out: EC50 (nM) Y181C
Protocol: as §1, §2, §3, §4

[5] = tested on: HIV-1 Y188L mutant strain; test: Anti-HIV-1 activity in MT-4 cells (MTT method), Y188L; format: cell-based; details: Human immunodeficiency virus 1, MT4, read-out: EC50 (nM) Y188L
Protocol: as §1, §2, §3, §4

[6] = tested on: HIV-1 E138K mutant strain; test: Anti-HIV-1 activity in MT-4 cells (MTT method), E138K; format: cell-based; details: Human immunodeficiency virus 1, MT4, read-out: EC50 (nM) E138K
Protocol: as §1, §2, §3, §4

[7] = tested on: HIV-1 F227L/V106A double mutant strain; test: Anti-HIV-1 activity in MT-4 cells (MTT method), F227L/V106A; format: cell-based; details: Human immunodeficiency virus 1, MT4, read-out: EC50 (nM) F227L/V106A
Protocol: as §1, §2, §3, §4

[8] = tested on: HIV-1 double mutant RES056 (Y181C/K103N); test: Anti-HIV-1 activity in MT-4 cells (MTT method), RES056; format: cell-based; details: Human immunodeficiency virus 1, MT4, read-out: EC50 (nM) Y181C/K103N
Protocol: as §1, §2, §3, §4

[9] = Human immunodeficiency virus 1, IIIB, MT4, read-out: EC50 (nM) wt

| SMILES | EC50 [1, 9] [nM] | EC50 [2] [nM] | EC50 [3] [nM] | EC50 [4] [nM] | EC50 [5] [nM] | EC50 [6] [nM] | EC50 [7] [nM] | EC50 [8] [nM] | melting point [°C] | Activity against wide-type HIV-1, folds better than NVP ([1]; wide-type HIV-1, relative to NVP) [folds] | Activity against wide-type HIV-1 compared with RPV ([1]; wide-type HIV-1, relative to RPV) | EC50 ([1]; Human immunodeficiency virus 1, MT4, MT-4 cells, 50% protection against HIV-1-induced cytopathicity, wt (IIIB), read-out: EC50 (nM) wt) [nM] |
| --- | --- | --- | --- | --- | --- | --- | --- | --- | --- | --- | --- | --- |
| Cc1cc(C#N)cc(C)c1Oc1nc(Nc2ccc(C#N)cc2)nc2c1SCCC2 [IA-1-1, 4-((2-((4-cyanophenyl)amino)-7,8-dihydro-6H-thiopyrano[3,2-d]pyrimidin-4-yl)oxy)-3,5-dimethylbenzonitrile] | < 10 | 10 to 100 | < 10 | 10 to 100 | 10 to 100 | 10 to 100 | 10 to 100 | 10 to 100 | 253 to 254 |  |  |  |
| Cc1cc(C#N)cc(C)c1Oc1nc(Nc2ccc(C#N)cc2)nc2c1[S+]([O-])CCC2 (stereo not drawn) [IA-1-3, 4-((2-((4-cyanophenyl)amino)-5-oxido-7,8-dihydro-6H-thiopyrano[3,2-d]pyrimidin-4-yl)oxy)-3,5-dimethylbenzonitrile] | < 10 | > 100 | 10 to 100 | 10 to 100 | 10 to 100 | 10 to 100 | > 100 | > 100 | 247 to 249 |  |  |  |
| Cc1cc(C#N)cc(C)c1Oc1nc(NC2CCN(Cc3cccc(C(N)=O)c3)CC2)nc2c1SCCC2 [IIA-1-9, 3-((4-((4-(4-cyano-2,6-dimethylphenoxy)-7,8-dihydro-6H-thiopyrano[3,2-d]pyrimidin-2-yl)amino)piperidin-1-yl)methyl)benzamide] | < 10 | 10 to 100 | 10 to 100 | 10 to 100 | 10 to 100 | 10 to 100 | > 100 | > 100 |  |  |  |  |
| Cc1cc(C#N)cc(C)c1Oc1nc(NC2CCN(Cc3ccc(S(C)(=O)=O)cc3)CC2)nc2c1SCCC2 [IIA-1-11, 3,5-dimethyl-4-((2-((1-(4-(methylsulfonyl)benzyl)piperidin-4-yl)amino)-7,8-dihydro-6H-thiopyrano[3,2-d]pyrimidin-4-yl)oxy)benzonitrile] | < 10 | 10 to 100 | < 10 | 10 to 100 | 10 to 100 | 10 to 100 | 10 to 100 | 10 to 100 |  |  |  |  |
| Cc1cc(C#N)cc(C)c1Oc1nc(NC2CCN(c3cccc(C(N)=O)c3)CC2)nc2c1SCCC2 [IIC-1-2, 3-(4-((4-(4-cyano-2,6-dimethylphenoxy)-7,8-dihydro-6H-thiopyrano[3,2-d]pyrimidin-2-yl)amino)piperidin-1-yl)benzamide] | < 10 | 10 to 100 | < 10 | < 10 | < 10 | 10 to 100 | > 100 | 10 to 100 |  |  |  |  |
| Cc1cc(/C=C/C#N)cc(C)c1Nc1ccnc(Nc2ccc(C#N)cc2)n1 [RPV, Rilpivirine, reference compound] | < 10 | < 10 | < 10 | < 10 | 10 to 100 | < 10 | 10 to 100 | 10 to 100 |  |  |  |  |
| Cc1cc(C#N)cc(C)c1Oc1nc(NC2CCN(Cc3ccc(C(N)=O)cc3)CC2)nc2c1SCCC2 [IIA-1-8, 4-((4-((4-(4-cyano-2,6-dimethylphenoxy)-7,8-dihydro-6H-thiopyrano[3,2-d]pyrimidin-2-yl)amino)piperidin-1-yl)methyl)benzamide] | < 10 | 10 to 100 | < 10 | 10 to 100 | 10 to 100 | 10 to 100 | > 100 | 10 to 100 |  |  |  |  |
| Cc1cc(/C=C/C#N)cc(C)c1Oc1nc(Nc2ccc(C#N)cc2)nc2c1SCCC2 [IA-1-2, (E)-4-((4-(4-(2-cyanovinyl)-2,6-dimethylphenoxy)-7,8-dihydro-6H-thiopyrano[3,2-d]pyrimidin-2-yl)amino)benzonitrile] | < 10 | < 10 | < 10 | 10 to 100 | 10 to 100 | 10 to 100 | 10 to 100 | 10 to 100 |  |  |  |  |
| Cc1cc(C#N)cc(C)c1Oc1nc(Nc2ccc(C#N)cc2)nc(N)c1Br [ETV, Etravirine, reference compound] | < 10 | < 10 | < 10 | 10 to 100 | 10 to 100 | 10 to 100 | 10 to 100 | 10 to 100 |  |  |  |  |
| Cc1cc(C#N)cc(C)c1Oc1nc(Nc2ccc(C#N)cc2)nc2c1S(=O)(=O)CCC2 [IA-1-4, 4-((2-((4-cyanophenyl)amino)-5,5-dioxido-7,8-dihydro-6H-thiopyrano[3,2-d]pyrimidin-4-yl)oxy)-3,5-dimethylbenzonitrile] | < 10 | 10 to 100 | < 10 | 10 to 100 | 10 to 100 | 10 to 100 | 10 to 100 | 10 to 100 | 263 to 265 | 30 | comparable |  |
| O=C1Nc2ccc(Cl)cc2[C@@](C#CC2CC2)(C(F)(F)F)O1 [EFV, Efavirenz, reference compound] |  | 10 to 100 | 10 to 100 | < 10 | 10 to 100 | < 10 | 10 to 100 | > 100 |  |  |  | < 10 |
